Measured values from ChEMBL document CHEMBL1146769, “The discovery of N-(1,3-thiazol-2-yl)pyridin-2-amines as potent inhibitors of KDR kinase” (Bioorg Med Chem Lett, 2004).

Assays:
[1] = biological target: Fibroblast growth factor receptor 1 (Homo sapiens) (UniProt P11362); assay: Selectivity for Fibroblast growth factor receptor 1 over (KDR) kinase insert domain receptor
[2] = biological target: Fibroblast growth factor receptor 2 (Homo sapiens) (UniProt P21802); assay: Selectivity for Fibroblast growth factor receptor 2 over (KDR) kinase insert domain receptor
Sequence of Fibroblast growth factor receptor 2 (Homo sapiens) (P21802 22-821 limits assumed): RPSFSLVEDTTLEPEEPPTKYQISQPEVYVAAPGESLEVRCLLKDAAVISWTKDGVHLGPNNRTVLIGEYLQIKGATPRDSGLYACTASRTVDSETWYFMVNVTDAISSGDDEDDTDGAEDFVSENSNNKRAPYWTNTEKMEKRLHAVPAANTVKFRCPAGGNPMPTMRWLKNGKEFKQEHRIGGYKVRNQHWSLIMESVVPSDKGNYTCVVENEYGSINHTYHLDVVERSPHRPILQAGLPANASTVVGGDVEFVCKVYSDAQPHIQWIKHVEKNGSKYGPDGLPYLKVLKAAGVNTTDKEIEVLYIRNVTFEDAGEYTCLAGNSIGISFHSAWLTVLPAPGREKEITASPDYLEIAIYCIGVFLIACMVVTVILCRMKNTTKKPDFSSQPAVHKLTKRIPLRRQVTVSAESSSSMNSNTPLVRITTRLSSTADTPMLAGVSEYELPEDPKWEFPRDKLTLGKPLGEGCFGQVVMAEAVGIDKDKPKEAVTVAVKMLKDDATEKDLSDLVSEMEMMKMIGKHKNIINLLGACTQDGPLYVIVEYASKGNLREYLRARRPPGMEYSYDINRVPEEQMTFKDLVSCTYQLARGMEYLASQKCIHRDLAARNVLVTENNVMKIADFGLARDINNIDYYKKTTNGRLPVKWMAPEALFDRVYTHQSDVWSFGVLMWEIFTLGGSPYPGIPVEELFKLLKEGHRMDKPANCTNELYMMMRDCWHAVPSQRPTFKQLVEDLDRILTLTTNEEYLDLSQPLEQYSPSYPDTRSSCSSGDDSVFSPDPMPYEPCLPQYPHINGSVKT

[3] = biological target: Platelet-derived growth factor receptor beta (Homo sapiens) (UniProt P09619); assay: Selectivity for PDGFRbeta over (KDR) kinase insert domain receptor
Sequence of Platelet-derived growth factor receptor beta (Homo sapiens) (P09619 whole entry, the tested form may be a part): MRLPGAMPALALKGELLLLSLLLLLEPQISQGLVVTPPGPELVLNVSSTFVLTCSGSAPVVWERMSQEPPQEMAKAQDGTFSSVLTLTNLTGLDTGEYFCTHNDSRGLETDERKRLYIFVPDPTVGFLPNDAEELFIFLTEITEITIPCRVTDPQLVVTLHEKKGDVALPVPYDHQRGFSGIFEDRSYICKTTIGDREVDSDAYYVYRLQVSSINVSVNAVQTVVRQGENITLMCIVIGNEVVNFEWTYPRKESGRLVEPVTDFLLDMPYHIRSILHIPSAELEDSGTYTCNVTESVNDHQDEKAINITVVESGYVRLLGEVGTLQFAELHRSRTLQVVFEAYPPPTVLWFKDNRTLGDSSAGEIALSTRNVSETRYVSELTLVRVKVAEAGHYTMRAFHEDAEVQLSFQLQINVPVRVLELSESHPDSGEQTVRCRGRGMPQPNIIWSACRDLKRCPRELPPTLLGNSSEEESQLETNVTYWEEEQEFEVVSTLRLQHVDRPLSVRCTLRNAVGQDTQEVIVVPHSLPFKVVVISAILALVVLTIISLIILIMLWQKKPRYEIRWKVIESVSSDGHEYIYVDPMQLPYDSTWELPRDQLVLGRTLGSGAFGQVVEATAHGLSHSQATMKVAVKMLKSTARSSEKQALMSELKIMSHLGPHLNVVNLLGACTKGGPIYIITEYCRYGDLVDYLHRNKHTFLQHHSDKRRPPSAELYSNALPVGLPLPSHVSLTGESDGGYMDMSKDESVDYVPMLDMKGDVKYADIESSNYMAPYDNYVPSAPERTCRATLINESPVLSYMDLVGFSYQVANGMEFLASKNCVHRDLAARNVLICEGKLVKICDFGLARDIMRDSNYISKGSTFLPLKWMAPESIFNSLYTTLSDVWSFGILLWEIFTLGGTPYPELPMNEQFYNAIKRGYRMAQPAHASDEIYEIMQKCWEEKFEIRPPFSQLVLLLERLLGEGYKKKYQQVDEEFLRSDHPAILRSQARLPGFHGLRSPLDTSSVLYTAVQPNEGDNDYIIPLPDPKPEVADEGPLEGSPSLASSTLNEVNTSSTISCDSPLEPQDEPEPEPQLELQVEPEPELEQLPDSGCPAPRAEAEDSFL

[4] = biological target: Proto-oncogene tyrosine-protein kinase Src (Homo sapiens) (UniProt P12931); assay: Selectivity for Src protein tyrosine kinase over (KDR) kinase insert domain receptor
[5] = biological target: Vascular endothelial growth factor receptor 1 (Homo sapiens) (UniProt P17948); assay: Selectivity for Vascular endothelial growth factor receptor 1 over (KDR) kinase insert domain receptor
Sequence of Vascular endothelial growth factor receptor 1 (Homo sapiens) (P17948 whole entry, the tested form may be a part): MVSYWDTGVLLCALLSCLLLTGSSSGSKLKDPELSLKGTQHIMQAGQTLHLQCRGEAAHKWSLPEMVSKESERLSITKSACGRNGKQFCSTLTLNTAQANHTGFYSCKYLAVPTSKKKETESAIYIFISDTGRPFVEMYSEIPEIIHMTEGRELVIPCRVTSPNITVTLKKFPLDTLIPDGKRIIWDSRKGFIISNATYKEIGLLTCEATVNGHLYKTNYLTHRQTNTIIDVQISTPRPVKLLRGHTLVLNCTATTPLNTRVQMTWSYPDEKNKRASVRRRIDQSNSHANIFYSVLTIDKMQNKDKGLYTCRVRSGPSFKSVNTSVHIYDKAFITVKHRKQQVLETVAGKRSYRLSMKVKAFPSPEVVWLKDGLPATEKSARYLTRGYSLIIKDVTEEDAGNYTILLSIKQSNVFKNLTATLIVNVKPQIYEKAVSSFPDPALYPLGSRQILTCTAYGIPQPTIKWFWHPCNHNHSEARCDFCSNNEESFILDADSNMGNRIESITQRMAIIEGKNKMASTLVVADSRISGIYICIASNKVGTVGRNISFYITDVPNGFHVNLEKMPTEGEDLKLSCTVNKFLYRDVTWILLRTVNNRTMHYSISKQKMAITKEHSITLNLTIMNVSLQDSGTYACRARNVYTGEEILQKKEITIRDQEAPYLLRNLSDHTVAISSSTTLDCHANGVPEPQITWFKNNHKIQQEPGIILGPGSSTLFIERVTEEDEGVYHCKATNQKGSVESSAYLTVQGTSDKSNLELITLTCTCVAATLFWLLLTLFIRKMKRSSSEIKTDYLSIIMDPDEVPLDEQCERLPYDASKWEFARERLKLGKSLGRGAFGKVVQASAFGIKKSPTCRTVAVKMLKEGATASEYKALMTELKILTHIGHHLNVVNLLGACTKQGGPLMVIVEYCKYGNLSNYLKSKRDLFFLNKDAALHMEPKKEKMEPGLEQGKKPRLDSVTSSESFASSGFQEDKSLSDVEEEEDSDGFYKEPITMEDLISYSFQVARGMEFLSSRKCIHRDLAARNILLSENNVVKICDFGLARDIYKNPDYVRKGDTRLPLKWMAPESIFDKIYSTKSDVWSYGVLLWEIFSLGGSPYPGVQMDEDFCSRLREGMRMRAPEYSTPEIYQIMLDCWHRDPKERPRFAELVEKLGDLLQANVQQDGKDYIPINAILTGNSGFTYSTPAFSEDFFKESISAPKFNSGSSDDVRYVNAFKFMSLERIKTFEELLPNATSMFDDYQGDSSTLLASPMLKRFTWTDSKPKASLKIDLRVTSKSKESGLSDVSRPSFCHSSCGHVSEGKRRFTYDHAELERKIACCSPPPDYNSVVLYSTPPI

[6] = biological target: Vascular endothelial growth factor receptor 2 (Homo sapiens, UniProt P35968); assay: Inhibitory activity towards vascular endothelial growth factor receptor 2
[7] = biological target: Vascular endothelial growth factor receptor 3 (Homo sapiens) (UniProt P35916); assay: Selectivity for Vascular endothelial growth factor receptor 3 over (KDR) kinase insert domain receptor
Sequence of Vascular endothelial growth factor receptor 3 (Homo sapiens) (P35916 whole entry, the tested form may be a part): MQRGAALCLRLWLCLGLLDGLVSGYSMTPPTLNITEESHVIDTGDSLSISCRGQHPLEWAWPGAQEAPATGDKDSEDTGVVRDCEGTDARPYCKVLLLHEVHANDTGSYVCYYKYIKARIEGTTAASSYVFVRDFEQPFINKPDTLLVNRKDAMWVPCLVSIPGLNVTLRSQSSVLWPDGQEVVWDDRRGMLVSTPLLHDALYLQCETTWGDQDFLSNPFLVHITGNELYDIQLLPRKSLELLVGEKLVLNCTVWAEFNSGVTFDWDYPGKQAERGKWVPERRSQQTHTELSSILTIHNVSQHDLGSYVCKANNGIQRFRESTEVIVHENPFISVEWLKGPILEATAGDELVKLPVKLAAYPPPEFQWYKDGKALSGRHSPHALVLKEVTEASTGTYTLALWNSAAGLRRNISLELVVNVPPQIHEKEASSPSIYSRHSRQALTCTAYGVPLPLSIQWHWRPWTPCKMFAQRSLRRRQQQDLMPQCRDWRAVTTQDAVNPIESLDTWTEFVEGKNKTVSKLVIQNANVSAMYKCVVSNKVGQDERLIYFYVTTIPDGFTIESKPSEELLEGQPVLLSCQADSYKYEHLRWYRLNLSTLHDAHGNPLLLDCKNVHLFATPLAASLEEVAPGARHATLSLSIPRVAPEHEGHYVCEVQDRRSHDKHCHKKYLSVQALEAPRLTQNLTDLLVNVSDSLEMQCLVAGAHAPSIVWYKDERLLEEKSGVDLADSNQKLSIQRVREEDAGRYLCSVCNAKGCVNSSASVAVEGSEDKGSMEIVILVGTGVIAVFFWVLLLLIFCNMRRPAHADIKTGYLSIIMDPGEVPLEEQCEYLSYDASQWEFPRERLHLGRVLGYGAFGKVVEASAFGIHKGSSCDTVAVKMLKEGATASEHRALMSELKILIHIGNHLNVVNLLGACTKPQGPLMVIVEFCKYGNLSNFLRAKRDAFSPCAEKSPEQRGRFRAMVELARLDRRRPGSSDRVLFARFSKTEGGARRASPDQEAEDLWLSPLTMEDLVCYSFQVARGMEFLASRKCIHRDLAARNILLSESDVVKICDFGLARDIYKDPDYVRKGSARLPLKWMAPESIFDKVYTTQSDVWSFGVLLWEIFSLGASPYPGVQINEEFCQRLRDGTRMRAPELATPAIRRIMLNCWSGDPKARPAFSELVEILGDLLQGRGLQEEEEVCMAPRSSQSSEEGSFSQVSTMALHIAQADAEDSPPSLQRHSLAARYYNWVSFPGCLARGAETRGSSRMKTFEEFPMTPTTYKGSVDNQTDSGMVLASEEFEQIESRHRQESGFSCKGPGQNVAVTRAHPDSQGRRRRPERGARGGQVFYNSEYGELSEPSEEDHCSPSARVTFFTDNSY

Selectivity [1] | Selectivity [2] | Selectivity [3] | Selectivity [4] | Selectivity [5] | IC50 [6] [nM] | Selectivity [7] | Structure (SMILES)
220 | 50 | 0.5 | 190 | 7 | 6 | 2 | Cc1ccnc(Nc2ncc(-c3ccccc3)s2)c1
 |  |  |  |  | 1880 |  | c1ccc(-c2cnc(Nc3ccccn3)o2)cc1
 |  |  |  |  | 3 |  | COc1cccc(Nc2ncc(-c3ccccc3)s2)n1
 |  |  |  |  | 194 |  | Clc1cnc(Nc2ccccn2)s1
 |  |  |  |  | 46 |  | COc1cccnc1Nc1ncc(-c2ccccc2)s1
 |  |  |  |  | 71 |  | Brc1cnc(Nc2ccccn2)s1
> 130 | > 130 |  | > 130 | > 130 |  | 1 | CCCCN(C)c1ccc(/N=N/c2ncc([N+](=O)[O-])s2)c(C)c1
214 | 107 | 68 | 678 | 30 | 36 | 4 | N#Cc1cnc(Nc2ccccn2)s1
 |  |  |  |  | 11 |  | COc1ccnc(Nc2ncc(-c3ccccc3)s2)c1
 |  |  |  |  | 1270 |  | Cc1cnc(Nc2ccccn2)s1
 |  |  |  |  | 259 |  | c1ccc(-c2cnc(Nc3ccncc3)s2)cc1
72 | 14 |  | > 240 | 4 |  | 1 | O=C(Nc1ncc(-c2ccccc2)s1)c1ccccc1
1620 | 400 | 0.3 | 840 | 12 | 14 | 3 | Brc1cccc(Nc2ncc(-c3ccccc3)s2)n1
600 | 210 | 0.3 | 760 | 8 | 10 | 3 | Cc1cccc(Nc2ncc(-c3ccccc3)s2)n1
> 580 | > 580 | 0.1 | > 580 | 6 | 35 | 1 | Clc1ccc(Nc2ncc(-c3ccccc3)s2)nc1
 |  |  |  |  | 124 |  | c1ccc(Nc2ncc(-c3ccccc3)s2)cc1
220 | 70 | 0.3 | 570 | 5 | 19 | 1 | Cc1ccc(Nc2ncc(-c3ccccc3)s2)nc1
820 | 200 | 1 | 1200 | 16 | 13 | 3 | Cc1cccnc1Nc1ncc(-c2ccccc2)s1
